Data published in US20200031778A1, “NOVEL 5-SUBSTITUTED IMIDAZOLYLMETHYL DERIVATIVES” (Bayer CropScience Aktiengesellschaft, priority 2016, published 2020).

Assay: Log P by HPLC on reversed phase columns (EEC directive 79/831 Annex V.A8; methods [a], [b], [c])
Assay type: physicochemical
Settings: not given
Outline: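 Reversed-phase HPLC with LC-UV detection, 10→95% acetonitrile linear gradient; aqueous eluent 0.1% formic acid [a], 0.001 M ammonium acetate, neutral [b], or 0.1% phosphoric acid [c]. Calibrated against C3–C16 alkan-2-ones of known Log P by retention-time linear interpolation; multiple values within a method separated by "+".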

SMILES | LogP
N#Cc1cncn1CC(O)(c1ccc(Cl)cc1Cl)C1(F)CC1 (stereo not drawn) [I-237] | 2.51^[a]
CC(C)(C)C#Cc1ccc(C(O)(Cn2cncc2C#N)C2(F)CC2)c(Cl)c1 (stereo not drawn) [I-642] | 3.83^[a]
OC(Cn1cncc1F)c1ccc(Oc2ccc(Br)cc2)nc1C(F)(F)F (stereo not drawn) [I-103] | 2.28^[a]
N#Cc1cncn1CC(O)(c1ccc(F)cc1)C1(F)CC1 (stereo not drawn) [I-351] | 2.04^[a]
CC(C)(C)C(O)(C=CCC1CCCCC1)Cn1cncc1C#N (stereo not drawn) [I-673] | 4.05^[a]
OC(Cn1cncc1Br)c1ccc(Oc2ccc(Cl)nc2)nc1Cl (stereo not drawn) [I-17] | 1.69^a
N#Cc1cncn1CC(O)c1ccccc1Br (stereo not drawn) [I-140] | 1.62^[a]
CC(C)C(O)(Cn1cncc1C#N)c1ccc(Cl)cc1Cl (stereo not drawn) [I-300] | 2.92^[a]
CC(O)(Cn1cncc1C#N)c1ccc(Oc2ccc(I)cc2)cc1F (stereo not drawn) [I-189] | 3.48^[a]
N#Cc1cncn1CC(O)(c1ccc(C(F)(F)F)cc1Cl)C1(F)CC1 (stereo not drawn) [I-383] | 2.75^[a]
CC(C)(C)CC(C)(O)Cn1cncc1C#N (stereo not drawn) [I-239] | 1.92^[a]
N#Cc1cncn1CC(O)(C#Cc1ccccc1)C1(F)CC1 (stereo not drawn) [I-371] | 2.20^[a]
CCOC(Cn1cncc1C(N)=O)c1ccc(Oc2ccc(Cl)cc2)cc1C(F)(F)F (stereo not drawn) [I-83] | 2.54^[a]
N#Cc1cncn1CC(O)(c1ccc(Br)cc1F)C1CC1 (stereo not drawn) [I-404] | 2.62^[a]
CC(O)(Cn1cncc1Cl)c1ccc(Oc2ccc(OC(F)(F)F)cc2)cc1Cl (stereo not drawn) [I-158] | 3.06^[a]
N#Cc1cncn1CC(O)(c1cc(Cl)ccc1Cl)C1(F)CC1 (stereo not drawn) [I-623] | 2.39^[a]
CC(O)(Cn1cncc1Cl)c1ccc(Oc2ccc(Cl)cc2)cc1 (stereo not drawn) [I-164] | 2.32^[a]
N#Cc1cncn1CC(O)c1cnc(Oc2ccc(OC(F)(F)F)cc2)cc1C(F)(F)F (stereo not drawn) [I-125] | 3.35^[a]
N#Cc1cncn1CC(O)(c1ccc(F)c(F)c1F)C1(Cl)CC1 (stereo not drawn) [I-626] | 2.37^[a]
OC(Cn1cncc1Cl)c1ccc(Oc2ccc(Cl)nc2)cc1C(F)(F)F (stereo not drawn) [I-19] | 2.14^[a]

SMILES | LogP
N#Cc1cncn1CC(O)(CC1CC1)c1c(F)cc(F)cc1F (stereo not drawn) [I-511] | 2.34^[a]
N#Cc1cncn1CC(O)c1ccc(Oc2ccc(I)cc2)cc1Br (stereo not drawn) [I-110] | 3.48^[a]
N#Cc1cncn1CC(O)c1ccc(Oc2ccc(Br)cc2)nc1C(F)(F)F (stereo not drawn) [I-128] | 3.09^[a]
CCC(O)(Cn1cncc1C#N)c1ccc(Cl)cc1Cl (stereo not drawn) [I-301] | 2.66^[a]
C[Si](C)(C)C#CC(O)(Cn1cncc1C#N)C1(Cl)CC1 (stereo not drawn) [I-318] | 2.76^[a]
N#Cc1cncn1CC(O)(c1ccc(Cl)cc1)C1(F)CC1 (stereo not drawn) [I-231] | 2.27^[a]
OC(Cn1cncc1Cl)c1ccc(Oc2ccccn2)cc1Cl (stereo not drawn) [I-80] | 1.53^[a]
Cc1ccc(C)c(C#CC(O)(Cn2cncc2C#N)C2(Cl)CC2)c1 (stereo not drawn) [I-298] | 3.09^[a]
CC1(C(O)(Cn2cncc2C#N)c2ccc(F)cc2)CC1 (stereo not drawn) [I-450] | 2.19^[a]
N#Cc1cncn1CC(O)(c1cc(Cl)cc(Br)c1)C1(F)CC1 (stereo not drawn) [I-536] | 2.76^[a]
OC(Cn1cncc1Cl)c1cnc(Oc2ccc(Cl)cc2)cc1C(F)(F)F (stereo not drawn) [I-25] | 2.55^[a]
COc1ccc(Oc2ccc(C(O)Cn3cncc3Cl)c(Cl)n2)c(Cl)c1 (stereo not drawn) [I-16] | 2.23^[a]
OC(Cn1cncc1Cl)c1ccc(Oc2ccc(Cl)cc2)cc1Br (stereo not drawn) [I-23] | 2.54^[a]
CCC(=O)OC(Cn1cncc1F)c1ccc(Oc2ccc(Cl)cc2)cc1C(F)(F)F (stereo not drawn) [I-105] | 3.54^[a]
N#Cc1cncn1CC(O)(CC1CC1)c1c(F)cccc1F (stereo not drawn) [I-513] | 2.18^[a]
CCOC(Cn1cncc1F)c1ccc(Oc2ccc(Cl)cc2)cc1C(F)(F)F (stereo not drawn) [I-107] | 3.54^[a]
N#Cc1cncn1CC(O)c1ccc(Oc2ccc(C(F)(F)F)nc2)nc1C(F)(F)F (stereo not drawn) [I-143] | 2.56^[a]
CC(O)(Cn1cncc1F)c1ccc(Oc2ccc(Cl)cc2)nc1C(F)(F)F (stereo not drawn) [I-257] | 2.32^[a]
N#Cc1cncn1CC(O)c1ccc(Oc2ccc(Br)cc2)cc1C(F)(F)F (stereo not drawn) [I-36] | 3.46^[a]
C[Si](C)(C)C#Cc1ccc(C(O)(Cn2cncc2C#N)C2(F)CC2)c(F)c1 (stereo not drawn) [I-608] | 3.79^[a]

SMILES | LogP
N#Cc1cncn1CC(O)(CC1CC1)c1ccc(F)c(Cl)c1 (stereo not drawn) [I-485] | 2.52^[a]
CCC(C)C(O)(Cn1cncc1C#N)c1ccc(Cl)cc1Cl (stereo not drawn) [I-314] | 3.29^[a]
CC(O)(Cn1cncc1Cl)c1ccc(Oc2ccc(Cl)cc2)cc1C(F)(F)F (stereo not drawn) [I-168] | 2.80^[a]
CCOC(Cn1cncc1F)c1cnc(Oc2ccc(Cl)cc2)cc1C(F)(F)F (stereo not drawn) [I-132] | 3.15^[a]
N#Cc1cncn1CC(O)c1cnc(Oc2ccc(C(F)(F)F)cc2)cc1Br (stereo not drawn) [I-130] | 3.13^[a]
COC(Cn1cncc1C#N)c1ccc(Oc2ccc(Br)cc2)cc1C(F)(F)F (stereo not drawn) [I-88] | 4.25^[a]
N#Cc1cncn1CC(O)(c1ccc(F)cc1F)C1CCC1 (stereo not drawn) [I-447] | 2.53^[a]
N#Cc1cncn1CC(O)(CC1CC1)c1cc(F)c(Cl)c(Cl)c1 (stereo not drawn) [I-530] | 2.97^[a]
OC(Cn1cncc1Cl)c1ccc(Oc2ccc(Cl)cc2)cc1C(F)(F)F (stereo not drawn) [I-21] | 2.86^[a]
N#Cc1cncn1CC(O)(CC1CC1)c1cnc(Cl)cc1Cl (stereo not drawn) [I-510] | 2.07^[a]
N#Cc1cncn1CC(O)c1ccccc1F (stereo not drawn) [I-139] | 1.31^[a]
CCCCCCC(O)(CC1CC1)Cn1cncc1C#N (stereo not drawn) [I-427] | 3.35^[a]
N#Cc1cncn1CC(O)(CC1CC1)c1cc(Cl)ccc1F (stereo not drawn) [I-516] | 2.43^[a]
CCCC(O)(Cn1cncc1C#N)c1ccc(Cl)cc1Cl (stereo not drawn) [I-292] | 3.14^[a]
N#Cc1cncn1CC(O)(c1c(F)ccc(F)c1F)C1(F)CC1 (stereo not drawn) [I-590] | 2.07^[a]
CC(C)(C)C(O)(Cn1cncc1C#N)c1ccc(F)c(Cl)c1 (stereo not drawn) [I-455] | 2.90^[a]
N#Cc1cncn1CC(O)(c1cccc(Cl)c1Cl)C1(F)CC1 (stereo not drawn) [I-438] | 2.39^[a]
CCCC(C)CCC(O)(Cn1cncc1C#N)C1(Cl)CC1 (stereo not drawn) [I-677] | 3.69^[a]
N#Cc1cncn1CC(O)(c1ccc(C#CC2CC2)cc1F)C1(Cl)CC1 (stereo not drawn) [I-651] | 3.11^[a]

More lines, now with the values ahead:

LogP | SMILES
1.84^[a] | CC(O)(Cn1cncc1F)c1ccc(Oc2ccc(Br)nc2)nc1C(F)(F)F (stereo not drawn) [I-363]
2.89^[a] | CCCCC(O)(Cn1cncc1C#N)c1ccccc1Br (stereo not drawn) [I-283]
3.00^[a] | OC(Cn1cncc1Cl)c1ccc(Oc2ccc(C(F)(F)F)cc2)cc1C(F)(F)F (stereo not drawn) [I-35]
2.43^[a] | N#Cc1cncn1CC(O)c1cnc(Oc2ccc(Br)cc2)cc1C(F)F (stereo not drawn) [I-134]
2.78^[a] | N#Cc1cncn1CC(O)(c1cc(F)c(Cl)c(Cl)c1)C1(F)CC1 (stereo not drawn) [I-535]
2.34^[a] | COc1cc(C(O)(Cn2cncc2C#N)C2(F)CC2)c(F)cc1Cl (stereo not drawn) [I-508]
2.39^[a] | CCCC(O)(Cn1cncc1C#N)c1ccc(F)cc1F (stereo not drawn) [I-400]
2.10^[a] | COc1ccc(C(O)(CC2CC2)Cn2cncc2C#N)c(Cl)n1 (stereo not drawn) [I-548]
2.36^[a] | N#Cc1cncn1CC(O)(c1ccc(Cl)cc1F)C1(F)CC1 (stereo not drawn) [I-356]
2.41^[a] | N#Cc1cncn1CC(O)(c1ccc(F)cc1Cl)C1CC1 (stereo not drawn) [I-412]
2.30^[a] | N#Cc1cncn1CC(O)(CC1CC1)c1ccc(F)c(F)c1 (stereo not drawn) [I-489]
2.35^[a] | C=C(C)CC(O)(Cn1cncc1C#N)C1(Cl)CC1 (stereo not drawn) [I-675]
3.05^[a] | CCCC(O)(Cn1cncc1C#N)c1ccc(Cl)cc1C(F)(F)F (stereo not drawn) [I-461]
2.75^[a] | OC(Cn1cncc1Cl)c1ccc(Oc2ccc(Br)cc2)cc1Cl (stereo not drawn) [I-11]
1.76^[a] | N#Cc1cncn1CC(O)(CC1CC1)c1ccc(F)cc1F (stereo not drawn) [I-414]
2.76^[a] | CC(C)(C)C(O)(Cn1cncc1C#N)c1cc(F)c(F)c(F)c1 (stereo not drawn) [I-462]
3.02^[a] | CC(O)(Cn1cncc1Cl)c1ccc(Oc2ccc(C(F)(F)F)cc2)cc1Cl (stereo not drawn) [I-159]
2.74^[a] | N#Cc1cncn1CC(O)(c1ccc(C2CC2)cc1Cl)C1(F)CC1 (stereo not drawn) [I-392]

LogP | SMILES
2.86^[a] | N#Cc1cncn1CC(O)(c1cc(Cl)c(Br)cc1Cl)C1(F)CC1 (stereo not drawn) [I-684]
2.16^[a] | O=C(Cn1cncc1F)c1ccc(Oc2ccc(C(F)(F)F)nc2)nc1C(F)(F)F [IX-130]
3.11^[a] | CC(C)(C)CC(O)(Cn1cncc1C#N)c1ccc(Cl)cc1 (stereo not drawn) [I-223]
2.58^[a] | N#Cc1cncn1CC(O)(c1ccc(Cl)c(Cl)c1F)C1(F)CC1 (stereo not drawn) [I-638]
3.02^[a] | CC(C)C(O)(Cn1cncc1C#N)c1ccc(Br)cc1Cl (stereo not drawn) [I-422]
2.77^[a] | N#Cc1cncn1CC(O)c1ccc(Oc2ccc(C(F)F)cc2)nc1C(F)(F)F (stereo not drawn) [I-145]
2.52^[a] | N#Cc1cncn1CC(O)(c1cccc(Cl)c1Cl)C1(Cl)CC1 (stereo not drawn) [I-337]
2.31^[a] | N#Cc1cncn1CC(O)(c1cc(Br)ccc1F)C1(F)CC1 (stereo not drawn) [I-631]
1.99^[a] | N#Cc1cncn1CC(O)(CC1CC1)C1(F)CC1 (stereo not drawn) [I-504]
2.93^[a] | N#Cc1cncn1CC(O)(CC1CC1)c1cc(Cl)cc(Br)c1 (stereo not drawn) [I-531]
1.73^[a] | OC(Cn1cncc1F)(c1ccc(Cl)cc1Br)C1(F)CC1 (stereo not drawn) [I-431]
3.02^[a] | N#Cc1cncn1CC(O)(C#CCC1CCCCC1)C1CC1 (stereo not drawn) [I-591]
2.08^[a] | N#Cc1cncn1CC(O)(C#CCC(Cl)CCl)C1(F)CC1 (stereo not drawn) [I-604]
3.03^[a] | N#Cc1cncn1CC(O)(c1ccc(C#CC2CC2)cc1Cl)C1(F)CC1 (stereo not drawn) [I-639]
2.82^[a] | Cc1ccc(C#CC(O)(Cn2cncc2C#N)C2(Cl)CC2)cc1 (stereo not drawn) [I-293]
2.82^[a] | N#Cc1cncn1CC(O)(c1cc(Cl)c(Cl)cc1Cl)C1(F)CC1 (stereo not drawn) [I-576]
2.86^[a] | N#Cc1cncn1CC(O)(c1ccc(Cl)cc1F)C1CCC1 (stereo not drawn) [I-448]

Same assay, conditions: reversed phase HPLC column; method [a]: LC-UV, acidic range, 0.1% formic acid in water and acetonitrile as eluent (linear gradient from 10% to 95% acetonitrile)

SMILES | chromatographic logP
N#Cc1cncn1CC(=O)c1ccc(F)cc1F [IX-87] | 1.75
O=C(Cn1cncc1Br)c1ccc(Oc2ccc(Cl)cc2)cc1F [IX-46] | 2.86
